From US6652921B2, “Wood containing fixed sorbic acid or sorbic acid salts” (Nutrinova Nutrition Specialties & Food Ingredients GmbH, priority 2000, dated 2003)

Assays:
[1] = cited from earlier work; for Solubility in water: water (cold water for sorbic acid)
[2] = mean body weight of 60 kg
Experimental: Sorbic acid and its salts are accordingly permitted for food use by international committees and permitted worldwide as a preservative for direct addition to foods. The internationally established tolerable daily dose for humans of up to 25 mg/kg of body weight corresponds to a tolerable consumption by adults of up to 1.5 g per day (at a mean body weight of 60 kg).

[3] = humans; internationally established; cited from earlier work
fungi = details: cited from earlier work
wood-damaging fungi = details: cited from earlier work

In the case of C/C=C/C=C/C(=O)[O-].[K+] [Potassium sorbate], the Solubility in water [1] is listed as “dissolves very readily in water”.

For C/C=C/C=C/C(=O)O [Sorbic acid, trans, trans-2,4-hexadienoic acid], the “Tolerable consumption by adults” value [2] is listed as “up to 1.5 g per day”, the “Solubility in liquid alcohols” value ([1]; liquid alcohols) is listed as “good” and the Solubility in water [1] is listed as “dissolves only sparingly in cold water”. The Tolerable daily dose [3] was “up to 25 mg/kg of body weight”.

In the case of C/C=C/C=C/C(=O)[O-].[Na+] [sodium sorbate], the “Growth of fungi on treated bamboo” value (fungi; after a few days) is given as “growth of fungi and poorer results than the dehydroacetic acid” and the “Activity depending on pH” value (fungi; bamboo) is given as “only active in these studies at a pH of 3.0”.

In the case of C/C=C/C=C/C(=O)[O-].C/C=C/C=C/C(=O)[O-].[Zn+2] [zinc salt of sorbic acid], the “Activity as wood preservative” value (wood-damaging fungi) is listed as “inactive”.
